From patent publication US11376307B2, “Compositions and methods of treating cancer with glycomimetic peptides” (SUSAVION BIOSCIENCES, INC., priority 2018, dated 2022)
“Also recorded” adds a separate entry of the source. Where two headings read alike, the source gives them in different places.

Columns and labels:
[1] = tested on: ID8 ovarian cancer cell line; experiment: Murine model of ovarian cancer, sv6D and paclitaxel
Description: Combination study of sv6D and paclitaxel. (FIG. 8A) Female C57BL/6 mice were implanted with ID8 ovarian cancer cell line. […] Body weights of mice are shown as measured on day 58, after two weeks of alternate-day subcutaneous treatment with sv6D (0.1 nmol/g) or 3 intraperitoneal doses (days 45, 47 and 49) of 18 μg/g paclitaxel in cremophor. […] (FIG. 8B) Alternate-day injections of sv6D were initiated on day 50 with peptide alone or on day 100 to mice that were previously treated with paclitaxel between day 45 and 49. […] (FIG. 8C) Kaplan-Meier survival curves for mice treated with paclitaxel, sv6D or a combination of the two in which alternate-day subcutaneous injections of sv6D was started 50 days after paclitaxel treatment.
Cells of an ovarian epithelial cancer line, ID8 [110], were implanted into the peritoneal cavity of female C57BL/6 mice at a dose of 6×10^6 cells. All animals were weighed at least weekly throughout these studies. Accumulation of ascites was monitored by increase in body weight, and animals were euthanized when end-stage behavior was expressed. […] Kaplan-Meier survival curves were analyzed by the Mantel-Cox log-rank test.
A murine ovarian cancer cell line (ID8) was implanted into the peritoneal cavity of C57BL/6 female mice on day 0. […] Progression of the cancer was monitored by body weight of animals as an indication of ascites accumulation.

[2] = target: T1, human ASGPR-1 (Homo sapiens, UniProt P07306); experiment: Solid-phase binding assay with recombinant receptors
T1 construct: The extracellular domains of receptors, which were fused with the Fc domain of immunoglobulin IgG; purchased R&D Systems
T1 sequence (P07306 62-291 limits assumed): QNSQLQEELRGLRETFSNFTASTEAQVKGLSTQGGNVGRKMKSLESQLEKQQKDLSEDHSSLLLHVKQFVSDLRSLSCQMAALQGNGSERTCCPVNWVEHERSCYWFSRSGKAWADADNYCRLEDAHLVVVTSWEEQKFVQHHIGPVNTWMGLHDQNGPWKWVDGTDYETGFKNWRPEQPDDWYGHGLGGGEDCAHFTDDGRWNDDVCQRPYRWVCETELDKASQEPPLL
Description: (§1) Binding Assays Solid-phase binding assays were performed with streptavidin-, protein A/G-, or Nickel-coated microtiter plates (Pierce). His-tagged or Fc-fusion recombinant receptors (R&D Systems, Minneapolis, Minn.) were reconstituted in PBS. Sufficient receptors were added to wells to saturate the coating. His-tagged receptors were added to each well at a 5-fold excess over the stated capacity of the Ni coating to minimize non-specific binding of the peptide. Wells were washed three times with binding buffer (25 mM Tris HCl, pH 7.4, 150 mM NaCl, 0.05% Tween-20) to remove unbound receptor and 50 μL of 2 μM biotinylated peptide in binding buffer were added and allowed to incubate for 1 h. The wells were washed four times with binding buffer and then incubated with 50 μL of 1 μg/mL streptavidin conjugated with peroxidase (Sigma-Aldrich) for 1 h. The wells were washed five times with binding buffer and 50 μL of peroxidase substrate (1-Step™ Ultra TMB, Pierce) were added. After several minutes to allow color development, the reaction was stopped with 50 μL 1 M H3PO4 and absorbance was measured at 450 nm. Bound streptavidin was quantitated by the specific activity of peroxidase (absorbance/ng protein conjugate/min) under the conditions of the assay.
(§2) Solid-phase binding assays were performed with recombinant human receptors. Three variations of the binding assay were used in this study, all of which allowed the arms of the tetravalent peptide to have full flexibility. (i) Biotinylated peptide was bound in microtiter wells coated with streptavidin and incubated with recombinant human receptors. After extensive washing, the bound receptor was measured by peroxidase conjugated to a receptor-specific antibody. (ii) The extracellular domains of receptors, which were fused with the Fc domain of immunoglobulin IgG, were bound in wells coated with protein A/G. Biotinylated peptide was incubated with the receptors and, after extensive washing, bound peptide was measured with streptavidin conjugated with peroxidase. Or (iii), recombinant receptors with a poly-His tag were bound to Nickel-coated wells and incubated with biotinylated peptide. svL4 and sv6D contain His residues (FIGS. 1A, 1C) and can bind to the Ni coating, which was minimized by adding sufficient poly-His-tagged receptor to saturate the Ni coating.

[3] = target: T2, ASGPR-1 (Homo sapiens, UniProt P07306); conditions: ref [49]; cited from earlier work
T2 sequence (P07306 1-291): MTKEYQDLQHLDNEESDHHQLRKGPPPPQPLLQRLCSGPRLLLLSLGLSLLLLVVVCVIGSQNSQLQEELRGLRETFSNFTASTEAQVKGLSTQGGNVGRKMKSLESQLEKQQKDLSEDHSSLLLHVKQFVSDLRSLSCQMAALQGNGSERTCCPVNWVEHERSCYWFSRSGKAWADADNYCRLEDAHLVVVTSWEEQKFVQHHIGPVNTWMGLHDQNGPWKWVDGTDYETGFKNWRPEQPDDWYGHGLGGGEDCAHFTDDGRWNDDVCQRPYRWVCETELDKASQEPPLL

[4] = target: STING protein (Homo sapiens, UniProt Q86WV6); conditions: refs [108,109]; cited from earlier work
STING protein, sequence (Q86WV6 whole entry): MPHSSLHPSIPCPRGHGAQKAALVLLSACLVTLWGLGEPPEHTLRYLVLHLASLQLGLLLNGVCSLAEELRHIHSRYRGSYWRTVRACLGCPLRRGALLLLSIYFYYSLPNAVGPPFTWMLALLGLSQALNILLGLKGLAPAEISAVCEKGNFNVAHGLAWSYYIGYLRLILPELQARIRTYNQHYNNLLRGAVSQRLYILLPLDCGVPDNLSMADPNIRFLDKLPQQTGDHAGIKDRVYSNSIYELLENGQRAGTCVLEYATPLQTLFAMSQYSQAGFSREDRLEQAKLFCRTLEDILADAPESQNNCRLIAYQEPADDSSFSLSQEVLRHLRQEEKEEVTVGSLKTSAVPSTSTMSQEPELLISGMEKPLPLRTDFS

[5] = tested on: STING pathway; experiment: THP1-Dual reporter cells, secreted luciferase; type: cell-based, human; conditions: medium of THP1 reporter cells
Description: FIGS. 12A-12B. Conjugation with cyclic dinucleotide. (FIG. 12A) The cyclic dinucleotide, c[G(2′,5′)p-2′-AHC-A(3′,5′)p] (CDN, AHC=6-aminohexylcarbamoyl), was conjugated to N-acetylated-sv6D by a carbodiimide reaction. (FIG. 12B) The conjugate delivers the activation factor at much lower concentrations. Human THP1 monocytes, engineered to detect activation of the type 1 IFN pathway (THP1-Dual™ Cells, InvivoGen, San Diego, Calif.), were incubated 20 hours with sv6D in RPMI 1640 medium containing 10% fetal bovine serum after adding the peptide CDN conjugate. The medium was recovered and then incubated with the luciferase detection reagent (Quanti-Luc™, InvivoGen) to assay for luciferase secreted in response to activation of the STING pathway. Photons were detected with a spectrofluorometer. […] The conjugate targets M2 macrophages and tumor cells that express CLEC10A and thus would produce IFN-β within the tumor microenvironment. […]
The ability of sv6D-CDN conjugates to induce activation of the STING pathway for production of type 1 interferons (IFN-α/β) was tested by incubating human THP1 monocytes that were genetically engineered as reporter cells (InvivoGen, San Diego, Calif.), with the conjugate. […] However, luciferase was detected in the medium of cells incubated with nanomolar concentrations of sv6D-CDN conjugate.

[6] = ref [90], cited from earlier work
[7] = target: T3, recombinant human CLEC10A (Homo sapiens, UniProt Q8IUN9); experiment: Solid-phase binding assay with recombinant receptors; conditions: biotinylated tetravalent peptide
T3 construct: The extracellular domains of receptors, which were fused with the Fc domain of immunoglobulin IgG; purchased R&D Systems
T3 sequence (Q8IUN9 61-316 limits assumed): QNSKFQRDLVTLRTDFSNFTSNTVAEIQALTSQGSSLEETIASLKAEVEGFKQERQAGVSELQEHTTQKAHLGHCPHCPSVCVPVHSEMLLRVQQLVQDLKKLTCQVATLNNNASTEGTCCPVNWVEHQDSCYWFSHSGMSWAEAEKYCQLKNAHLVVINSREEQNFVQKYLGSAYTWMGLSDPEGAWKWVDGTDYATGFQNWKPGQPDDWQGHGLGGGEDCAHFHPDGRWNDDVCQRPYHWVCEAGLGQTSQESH
Description: as §1, §2

[8] = tested on: peritoneal immune cells; experiment: Expansion of peritoneal cells after subcutaneous injection, flow cytometry; type: in vivo, C57BL/6 mice; conditions: 1 nmol/g s.c. on days 0, 2, 4; cells 24 h after each injection
Description: FIGS. 7A-7D. Expansion of peritoneal cells in C57BL/6 mice. Mice were injected subcutaneously at a dose of 1 nmol/g body weight of svL4, sv6D or svC1. Cells in each population recovered in a peritoneal lavage are expressed as cell counts (in thousands). Cells from three mice in each treatment group were pooled for analysis. The number of cells in each population was normalized to the average recovery of total cells from all groups. For each cell type, the left-hand, middle and right-hand set of bars represent samples from mice treated with svL4, sv6D or svC1, respectively. Mice were injected on days 0, 2 and 4, and cells were collected 24 h after each injection. Day 1, open bar; day 3, grey bar; day 5, black bar. Populations that express activation markers are indicated by an asterisk.
Flow Cytometry Healthy C57BL/6 male mice, 10 weeks old, were injected subcutaneously with peptides on alternate days. Peritoneal cells were isolated from mice 24 h after dosing by injecting ice cold PBS (containing 3% FBS) into the peritoneal cavity, gently massaging the abdomen, and then collecting the fluid, which was transferred into K2EDTA-treated tubes for evaluation of specific biomarkers. Cells from three mice in each group were pooled, counted and divided among FACS tubes (1×10^6 cells per tube). Cells were washed once in PBS containing 3% FBS, then stained with 0.25 to 1 μg of fluorescently conjugated antibody per 10^6 cells in 100 μL of buffer as recommended by the manufacturer (Table 1).
Cells were incubated with the antibodies for 30 min at 4° C. in the dark. Following staining, the cells were washed two times with PBS/3% FBS and immediately analyzed with a MACSQuant flow cytometer (Miltenyi Biotech, Inc., San Diego, Calif.). Compensation was performed using single stain tubes for each color present in the analysis as well as an unstained control sample. Collection of flow cytometric data and analysis with FlowJo software, version 10.0.6 (FlowJo, LLC, Ashland, Oreg.) were performed by Biomodels LLC (Watertown, Mass.).
To examine whether increases occurred in mature immune cells, peritoneal cells from Balb/c and C57BL/6 mice were analyzed by flow cytometry after cells were stained with the markers listed in Table 1. […] To explore this observation more extensively, svL4 or sv6D was injected into C57BL/6 mice on day 0, 2 or 4. Peritoneal cells were examined by flow cytometry 24 h after each injection. Shown in FIGS. 7A-7D are results expressed as cell counts for F4/80 CD11b CD86 (mature, active macrophages); CD11c (DCs); CD11c CD86 (activated DCs); CD4 CD69 (activated T cells); CD8 CD69 (activated cytotoxic T cells); NK1.1 CD3^+ CD69 (activated NKT cells); NK1.1 CD3^− CD69 (activated NK cells); CD19 (B cells); and CD19 CD73 CD80 CD273 (memory B cells). The numbers of these mature, activated cells continued to increase with each injection.

[9] = photodynamic, read-out: IC50 concentration for cell killing

With CC(=O)O[C@H]1C(=O)[C@@]2(C)[C@H]([C@H](OC(=O)c3ccccc3)[C@]3(O)C[C@H](OC(=O)[C@H](O)[C@@H](NC(=O)c4ccccc4)c4ccccc4)C(C)=C1C3(C)C)[C@]1(OC(C)=O)CO[C@@H]1C[C@@H]2O [paclitaxel, reference compound] the Median survival ([1]; single agent, sv6D 0.1 nmol/g, control median end-stage day 122) was “approximately 141 days” and the “Body weight (ascites accumulation) after two weeks of treatment” value ([1]; treatment from day 45, sv6D 0.1 nmol/g s.c. alternate days, paclitaxel 18 μg/g i.p. x3) was “had not significantly increased”.
In the case of “Asialofetuin: a multi-glycosylated protein [reference compound]”, the “Inhibition of binding of svL4 to ASGPR-1” value ([2]; asialofetuin at 75 μM, svL4 0.2 μM) is listed as 53% and the IC50 [3] is listed as 45600 ± 2700 nM.
In the case of c[G(2′,5′)p-2′-AHC-A(3′,5′)p] [CDN], the Kd [4] is listed as roughly 5000 nM, the “Concentration range needed to detect luciferase activity” value [5] is listed as “micromolar concentrations” and the “Concentration range needed to detect luciferase activity” value ([5]; listed as cyclic dinucleotides) is listed as “micromolar range”.
For chlorin p6, the IC50 ([6]; exposed to red light, read-out: IC50 for photosensitized cell killing) is listed as 30 nM and the IC50 [6, 9] is listed as roughly 10 nM.
In the case of purpurin-18, the IC50 [6, 9] is listed as roughly 10 nM.
In the case of “svC1: subset of svL4: the N-terminal half of the sequence; does not bind CLEC10A, used as control (VQATQSGGGS)”, the “Binding to ASGPR-1” value ([2]; biotinylated tetravalent peptide) is reported as “near the level of blank wells”, the “Binding to CLEC10A” value [7] is reported as “near the level of blank wells; also recorded: does not bind” and the “Change in mature, active peritoneal immune cell populations” value [8] is reported as “did not increase significantly”.
